`CCCCOc1ccc2c(O)c(C(=O)NCCO)nc(Cl)c2c1`: the melting point – broadly, the temperature, or range, at which the solid turns liquid – fell in the range of 118 to 120 °C.
The figure for `CC(=O)c1cccc(-c2ccc3c(c2)C(C)(C)OC(=O)N3)c1` is 178 to 179 °C; for `Cc1cc2oc(N(N)CCC#N)nc2c(C)c1C` it is 143 to 144 °C.
For the compound `CCc1cccc(CC(=O)O)c1OCCn1cc(C(=O)NCc2ccc(Cl)cc2Cl)c(OC(C)C)n1`, the melting point fell in the range of 125 to 126 °C.
The value for `O=C(c1cccc2nc3n(c12)CCCN3c1ccc(Cl)cc1Cl)N1CC(O)C1` was 257 to 258 °C.
The value for `CC(C)N(CCC(c1ccccc1)c1cc(CO)ccc1OC(=O)c1ccc([N+](=O)[O-])cc1)C(C)C` (stereo not given) was 124 °C; that for `c1cc(OCC2CO2)c2nonc2c1` (stereo not given) was 75 °C.
The value for `CCCCCCCCCCCCCCCCCCOc1cc(OCCCCCCOc2ccc(OCc3ccccc3)cc2)cc(C(=O)OCc2ccccc2)c1` was 60 to 62 °C; that for `CS(=O)(=O)C1CC(=O)N1CC(=O)OCc1ccccc1` (single isomer, unassigned; (+)) was 102 to 103 °C; that for `COc1cc(OC(=O)c2cc(O)c(O)c(O)c2)ccc1OC(=O)c1cc(O)c(O)c(O)c1` was 214 to 216 °C.
`O=C(O)COc1cccc(NCc2nc(-c3ccccc3)c(-c3ccccc3)o2)c1` gave a melting point of 146 to 151 °C.
The figure for `CC(=O)N1c2ccccc2Sc2c1ccc(O)c2Cl` is 214 °C; for `S=C=Nc1ccccc1N1CCCCC1` it is 143 to 145 °C.
The figure for `COc1cc2nc(N3CCN(C(=O)CC(O)c4ccccc4)CC3)nc(N)c2cc1OC` (stereo not given) is 222 °C.
The figure for `CSc1nc2c([nH]1)N(Cc1ccc(Cl)cc1)C1NCCN1C2=O` (stereo not given) is 296 to 297 °C; for `COC(=O)c1cc(-n2c(OC)nc(C(F)(F)C(F)(F)F)cc2=O)c(F)cc1Cl` it is 80 to 82 °C; for `CC(C)=CCOc1ccc(C(=O)C=Cc2ccncc2)c(O)c1` it is 99 to 100 °C.
Regarding `COc1ccc(C(=O)Oc2ccc(C(=O)O)c(F)c2)cc1C12CC3CC(CC(C3)C1)C2`, the melting point fell in the range of 254 to 256 °C.
Turning to `COc1ccc2c(=O)c3[nH]cc(C(=O)O)c(=O)c3oc2c1`, the melting point was 318 to 319 °C.
As to `Cc1csc(-c2nc(COc3ccc(CCCCn4ccnc4)cc3)co2)c1`, the melting point was in the range of 77 to 78 °C.
The figure for `CC(=O)NCCC1CCc2ccc3nc(C4CC4)oc3c21` (stereo not given) is 92 to 95 °C; for `OC1C(COCC(F)(F)F)OC(n2cnc3c(NC4CCOCC4)ncnc32)C1O` (stereo not given) it is 80 to 82 °C; for `CCC(C)Nc1nc2ncnn2c2c1cnc1c2cnn1CC` (stereo not given) it is 228 to 230 °C.
Compound `NS(=O)(=O)c1cccc(S(=O)(=O)NC2CC2)c1` had a melting point of 170 to 174 °C.
The value for `COc1c(C)c(C)c2c(c1C)C(c1ccc(CBr)cc1)C(C)(C)O2` (stereo not given) was 97 to 98 °C; that for `CN1CC(CCN2CCN(c3ccccc3)CC2)c2nc3ccccc3n2C1=O` (stereo not given) was 144 to 146 °C.
The figure for `O=[N+]([O-])CS(=O)(=O)c1ccccc1Br` is 74 to 76 °C; for `N#Cc1cccc(CSc2nnc(-c3ccc4ncc(-c5ccccn5)n4c3)o2)c1` it is 192 to 193 °C; for `COC=CC(C)(C)C(=O)Nc1ccc(Cl)cc1` it is 93 °C.
Consider `COC1C(O)C(CO)OC1n1cnc(C(N)=O)c1N` (stereo not given), for which the melting point fell in the range of 114 to 117 °C.
The value for `CCOC(=O)Nc1c(Cl)cccc1[Si](C)(C)C` was 109 to 110 °C; that for `Cc1cc(-c2cc(C(F)F)n3ncc(C(=O)Nc4cccc(S(=O)(=O)NC5CC5)c4)c3n2)ccc1C(F)(F)F` was 199 °C; that for `COc1cccc(OC)c1C(=O)Nc1cc(C(C)(C)C)n[nH]1` was 176 to 178 °C.
The value for `CCO/C=C/C(=O)Nc1cccc(Cl)c1OC` was 98 to 99 °C; that for `CCOC(=O)C1C(=O)CC(C)(O)C(C(=O)OCC)C1c1cc(OC)c2oc(C)c(C)c2c1` (stereo not given) was 157 to 158 °C; that for `CC(=O)c1ccc2c(c1)c(=O)c(C(=O)O)cn2Cc1ccc(F)cc1` was 206 to 208 °C.
In turn, `O=c1cc(N2CCOCC2)oc2c(-c3ccc(O)c(-c4ccccc4)c3)cccc12` registered a melting point of 243 to 247 °C.
The figure for `CCOC(=O)c1cc2c(=O)n(-c3ccccc3)c3ccccc3n2c1` is 256 to 259 °C; for `CC1CC(=O)NN=C1c1ccc2c(c1)C1(CC1)C(=O)N2` (stereo not given) it is 291 to 293 °C; for `CNCC(=O)N1c2ccccc2N(C)S(=O)(=O)c2ccccc21` it is 135 to 137 °C.
The figure for `Cc1cc(F)ccc1C(=O)CCCN1CCC2(CC1)C(=O)NCN2c1ccccc1` is 180 to 182 °C; for `COc1ccccc1-n1c(=O)[nH]c2c(C(N)=O)nc(-c3cccc(C#N)c3)nc21` it is 316 to 318 °C.
The figure for `CC(C)(C)OC(=O)c1cccc(NC(N)=O)c1` is 230 to 232 °C; for `COC12c3ccc(Cl)cc3CC1SC(=CN)N2C` (stereo not given) it is 65 to 70 °C.
The compound `OCCN1CCN(c2onc3c2CCc2ccccc2-3)CC1` gave a melting point of 137 to 138 °C.
The figure for `CC(=O)OCC(=O)C1=CCC2C3CCC4=CC(=O)CCC4(C)C34OC4CC12C` (stereo not given) is 129 to 130 °C; for `O=C(O)c1cnn2c(C(F)(F)F)cc(-c3ccc(C(F)(F)F)c(OCC(F)(F)F)c3)nc12` it is 264 °C.
The figure for `NC(=O)CN(N=O)N1CCOCC1` is 134 to 136 °C; for `CCCCCCCCCc1cc2ccc(C(=O)O)cc2[nH]1` it is 166 to 169 °C; for `BrCc1ccc2c(-c3ccccc3)onc2c1` it is 127 to 128 °C.
`Cc1nsnc1-n1cc(C(=O)O)c(=O)c2cc(F)c(Cl)nc21` showed a melting point of 247 to 249 °C.
The value for `O=C1c2ccccc2N(c2ccc(F)cc2)C2=NCCN12` was 278 to 280 °C.
The figure for `CCOC(=O)C1=C(C)Nc2nc(N)nc(N)c2C1c1cccnc1` (stereo not given) is 224 °C.
The value for `Nc1nccc(-c2c[nH]c3nccc(OC4CCCCC4)c23)n1` was more than 210 °C; that for `O=S(=O)(c1ccc(O)cc1)c1c(-c2ccccc2)cn2ccccc12` was 234 °C.
`Nc1ccccc1NC(=O)c1ccc(NC(=O)CO)cc1` gave a melting point of 221 to 223 °C.
Regarding `COc1cc(CCCCCCC=O)ccc1OCc1nc(-c2ccccc2)oc1C`, the melting point lay within 64 to 65 °C.
The value for `COc1cc2[nH]c(=O)c3c(c2cc1OC)CCN(CCN1CCCCC1)C3` was 185 to 188 °C.
The value for `CCn1cc(CN(C(=O)C2CCc3ccccc32)c2ccc(C(C)C)cc2)cn1` (stereo not given) was 83 to 84 °C; that for `CN1C(=O)C2C3C=CC(CC3)C2(c2ccc(Cl)c(Cl)c2)C1=O` (stereo not given) was 125 to 128 °C.
The value for `CCc1cn(C2CCC(CO)O2)c(=O)[nH]c1=O` (stereo not given) was 109 to 113 °C; that for `COc1cccc(C=C2N=C(c3ccc([N+](=O)[O-])cc3)OC2=O)c1OC` was 203 to 208 °C; that for `COC(=O)c1cc(CO)cc([N+](=O)[O-])c1` was 76.5 to 77.5 °C.
As for `N#Cc1ccc(C(=O)NNc2c(Cl)cc(C(F)(F)F)cc2Cl)cc1`, the melting point is 185 to 186 °C.
The figure for `O=c1[nH]c(CCN2CCCCC2)cc2c(O)cccc12` is 261 to 263 °C; for `CCOC(=O)c1cn(C)nc1C(F)(F)F` it is 61.5 to 63.1 °C; for `O=c1cnn(-c2ccc(C(c3ccc(Cl)cc3)c3nc(-c4ccccc4)cs3)c(Cl)c2)c(=O)[nH]1` (stereo not given) it is 90 °C.
`N#Cc1cc(O)c(O)c(C#N)c1CCC(=O)O` yielded a melting point of 210 to 220 °C.
The value for `CC(C)[C@H](CCC(=O)O)NC(=O)OC(C)(C)C` was 107 to 109 °C.
The value for `CC(=O)SC(CC(=O)c1ccc(C(C)C)cc1)C(=O)O` (stereo not given) was 84 to 86 °C; that for `COC(=O)c1nc(-c2ccc(Cl)c(OC)c2F)c(F)c(N)c1Cl` was 169 to 170 °C.
On to `CN1C(=O)N(C[C@H](C(=O)O)[C@@H](CC2CCCC2)C(=O)N2CCCCC2)C(=O)C1(C)C`, for which the melting point fell in the range of 111 to 114 °C.
Regarding `Cn1c(C(F)(F)F)c(C#N)c2cc(Cl)ccc21`, the melting point is 166 to 168 °C.
The figure for `CCCO[C@@H](Cc1ccc(OCCc2nc(-c3ccc(-c4ccccc4)cc3)oc2C)c2ccsc12)C(=O)O` is 147 to 151 °C; for `Cc1cc(-c2cc(CN3CCN(C)CC3)c(=O)n(Cc3ccc(Cl)cc3)n2)ccc1F` it is 133 to 134 °C.
The value for `CCC(C)(Cc1cn(C)c2ccc(OC)cc12)[N+](=O)[O-]` (stereo not given) was 95 to 96 °C.
The figure for `CCOC(=O)c1cc2ccccc2n(C(C)C)c1=O` is 54 to 57 °C; for `CC1=NN(c2ccc(C(=O)O)cc2)C(=O)C1Cc1ccc(-c2cc(C)c(C)cc2[N+](=O)[O-])o1` (stereo not given) it is 160 to 163 °C.
`O=c1cc(Nc2cccc(-c3ccncc3)c2)c1=O`: the melting point is 252 to 256 °C.
The value for `O=C(NCc1ccc(Cl)cc1)c1cn2c3c(cc(CN4CCOCC4)cc3c1=O)CN(Cc1ccccc1)C2` was 203 to 205 °C; that for `CN1CC(c2cccc(C(F)(F)F)c2)C(=O)C(c2ccccc2Cl)C1` (stereo not given) was 90 to 92 °C; that for `CN(C)C=Nc1c(-c2c(F)cc(F)cc2F)c(Cl)nc2ncnn12` was 188 to 190 °C.
The value for `O=C1Nc2ccccc2Cc2nccn21` was 238 to 240 °C; that for `COc1cc(Br)c(C2=NC(C)(C)CO2)cc1OC` was 49 to 51 °C.
The value for `COc1cn(-c2ccc(OS(=O)(=O)C(F)(F)F)cc2F)nc(-c2ccnn2-c2ccccc2)c1=O` was 108 to 110 °C; that for `CCOc1ccc(-c2ncc(C#N)cn2)cc1` was 153 °C; that for `O=S(=O)(c1ccc(Cl)cc1)C(c1cc(F)ccc1F)c1cc(N2CCCS2(=O)=O)ncc1Cl` (stereo not given) was 219 to 221 °C.
`O=C1NCCc2c1cc1n2CCCC1`: the melting point lay within 195 to 197 °C.
The value for `CC(CS(=O)(=O)C(C)c1ccccc1)C(=O)O` (stereo not given) was 91 to 93 °C; that for `CC1=NNC(=O)C1(C)Cl` (stereo not given) was 56 °C.

The values are drawn from a melting point compilation (Tetko et al.; mined from patent text by program, amines drawn as free bases though some values may be those of a salt).
